Calls of active or inactive are those of the source. The rule behind the calls is not given here. Some results are limits rather than exact numbers.

One data set has as its target Egl nine homolog 1 (Homo sapiens, UniProt Q9GZT9). Description: Inhibition of PHD2 (181 to 426 residue) (unknown origin) measured by fluorescence polarization assay.
A short description of data set [1]: Cytotoxicity against human Hep3B cells assessed as cell viability at 100 uM incubated for 24 hrs by CCK8 assay relative to control. In kind it is toxicity, cell-based, Hep 3B2. Conditions: read-out: Activity.
Data set [2] relates to Mus musculus. Description: Induction of reticulocytes production in C57BL/6 mouse at 20 mg/kg, po measured at day 3 and 3 days post-dose. Type of data set: functional, organism-based. As to conditions: time 3.0 day.
Data set [3] in a line: Toxicity in male ICR mouse assessed as change in spleen to body weight ratio at 15 to 100 mg/kg, po administered every other day and measured after 14 days. Type of data set: organism-based. As to conditions: in vivo, 336 h, dose 15-100 mg/kg, time 14 day.
A short description of data set [4]: Toxicity in male ICR mouse assessed as change in kidney to body weight ratio at 15 to 100 mg/kg, po administered every other day and measured after 14 days. Type of data set: organism-based. Conditions: in vivo, 336 h, dose 15-100 mg/kg, time 14 day.
The nature of data set [5]: Toxicity in ICR mouse assessed as spleen edema at 15 to 100 mg/kg, po administered every other day and measured after 14 days by H and E staining method. In kind it is organism-based. Conditions: in vivo, 336 h, dose 15-100 mg/kg, time 14 day.
The nature of data set [6]: Toxicity in ICR mouse assessed as lung edema at 15 to 100 mg/kg, po administered every other day and measured after 14 days by H and E staining method. Type of data set: organism-based. Conditions: in vivo, 336 h, dose 15-100 mg/kg, time 14 day.
Data set [7] can be described thus: Toxicity in male ICR mouse assessed as change in heart to body weight ratio at 15 to 100 mg/kg, po administered every other day and measured after 14 days. In kind it is organism-based. Conditions: in vivo, 336 h, dose 15-100 mg/kg, time 14 day.
Data set [8] is described as follows: Toxicity in female ICR mouse assessed as change in spleen to body weight ratio at 15 to 100 mg/kg, po administered every other day and measured after 14 days. Conditions: in vivo, 336 h, dose 15-100 mg/kg, time 14 day. In kind it is organism-based.
Data set [9] in a line: Toxicity in ICR mouse assessed as liver edema at 15 to 100 mg/kg, po administered every other day and measured after 14 days by H and E staining method. Type of data set: organism-based. Conditions: in vivo, 336 h, dose 15-100 mg/kg, time 14 day.
The nature of data set [10]: Toxicity in female ICR mouse assessed as change in kidney to body weight ratio at 15 to 100 mg/kg, po administered every other day and measured after 14 days. Type of data set: organism-based. As to conditions: in vivo, 336 h, dose 15-100 mg/kg, time 14 day.
Data set [11] can be described thus: Hepatotoxicity in ICR mouse assessed as effect on […] level at 15 to 100 mg/kg, po administered every other day and measured after 14 days. Type of data set: toxicity, organism-based. Conditions: in vivo, 336 h, dose 15-100 mg/kg, time 14 day.
Data set [12] can be described thus: Toxicity in ICR mouse assessed as heart edema at 15 to 100 mg/kg, po administered every other day and measured after 14 days by H and E staining method. Type of data set: organism-based. As to conditions: in vivo, 336 h, dose 15-100 mg/kg, time 14 day.
In data set [13] the test system is Mus musculus. Nature of the data set: Induction of reticulocytes production in po dosed C57BL/6 mouse measured at day 3 and 3 days post-dose. In kind it is functional, organism-based. As to conditions: dose 10-50 mg/kg, time 3.0 day, DDE = dose-dependent effect.
The nature of data set [14]: Toxicity in ICR mouse assessed as increase in body weight at 15 to 100 mg/kg, po administered every other day and measured upto 14 days. In kind it is organism-based. As to conditions: in vivo, 336 h, dose 15-100 mg/kg, time < 14 day.
Data set [15] in a line: Toxicity in male ICR mouse assessed as change in liver to body weight ratio at 15 to 100 mg/kg, po administered every other day and measured after 14 days. Type of data set: organism-based. As to conditions: in vivo, 336 h, dose 15-100 mg/kg, time 14 day.
Data set [16] in a line: Toxicity in male ICR mouse assessed as change in lung to body weight ratio at 15 to 100 mg/kg, po administered every other day and measured after 14 days. In kind it is organism-based. Conditions: in vivo, 336 h, dose 15-100 mg/kg, time 14 day.
Data set [17] is described as follows: Hepatotoxicity in ICR mouse assessed as effect on ALT level at 15 to 100 mg/kg, po administered every other day and measured after 14 days. In kind it is toxicity, organism-based. Conditions: in vivo, 336 h, dose 15-100 mg/kg, time 14 day.
Data set [18] in a line: Renal toxicity in ICR mouse assessed as effect on […] level at 15 to 100 mg/kg, po administered every other day and measured after 14 days. As to conditions: in vivo, 336 h, dose 15-100 mg/kg, time 14 day. Type of data set: organism-based.
The nature of data set [19]: Renal toxicity in ICR mouse assessed as effect on BUN level at 15 to 100 mg/kg, po administered every other day and measured after 14 days. Conditions: in vivo, 336 h, dose 15-100 mg/kg, time 14 day. In kind it is organism-based.
The nature of data set [20]: Toxicity in female ICR mouse assessed as change in lung to body weight ratio at 15 to 100 mg/kg, po administered every other day and measured after 14 days. Type of data set: organism-based. As to conditions: in vivo, 336 h, dose 15-100 mg/kg, time 14 day.
Data set [21] in a line: Toxicity in ICR mouse assessed as kidney edema at 15 to 100 mg/kg, po administered every other day and measured after 14 days by H and E staining method. In kind it is organism-based. Conditions: in vivo, 336 h, dose 15-100 mg/kg, time 14 day.
Data set [22] in a line: Toxicity in female ICR mouse assessed as change in heart to body weight ratio at 15 to 100 mg/kg, po administered every other day and measured after 14 days. In kind it is organism-based. Conditions: in vivo, 336 h, dose 15-100 mg/kg, time 14 day.
A short description of data set [23]: Toxicity in female ICR mouse assessed as change in liver to body weight ratio at 15 to 100 mg/kg, po administered every other day and measured after 14 days. In kind it is organism-based. Conditions: in vivo, 336 h, dose 15-100 mg/kg, time 14 day.
The subject of the next data set is Hep3B. Nature of the data set: Induction of HIF-alpha stabilization in human Hep3B cells assessed as fold increase in EPO transcriptional activity at 5 uM incubated for 12 hrs by qRT-PCR analysis. Type of data set: cell-based.

Sequence of Egl nine homolog 1 (Q9GZT9 whole entry): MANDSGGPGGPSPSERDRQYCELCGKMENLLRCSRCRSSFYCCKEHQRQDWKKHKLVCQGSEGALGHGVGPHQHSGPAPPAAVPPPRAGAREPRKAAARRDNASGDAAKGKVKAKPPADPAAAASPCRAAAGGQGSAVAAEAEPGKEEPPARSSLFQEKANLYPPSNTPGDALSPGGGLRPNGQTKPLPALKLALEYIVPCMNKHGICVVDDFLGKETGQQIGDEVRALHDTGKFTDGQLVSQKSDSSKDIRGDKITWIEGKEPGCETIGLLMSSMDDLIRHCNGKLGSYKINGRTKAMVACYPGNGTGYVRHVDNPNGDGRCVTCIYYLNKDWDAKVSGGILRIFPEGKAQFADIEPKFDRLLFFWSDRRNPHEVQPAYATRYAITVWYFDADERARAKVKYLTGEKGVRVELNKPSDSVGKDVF

Consider `O=C(O)CNC(=O)c1ncc(C2=CCN(S(=O)(=O)c3ccc(C(F)(F)F)cc3)CC2)cc1O`, for which the half-inhibitory concentration (IC50) against Egl nine homolog 1 came out at 72.3 nM.

Turning to `O=C(O)CNC(=O)c1ncc(C2=CCN(S(=O)(=O)Cc3ccc(Cl)cc3)CC2)cc1O`, on Egl nine homolog 1, the IC50 was determined as 6.14 nM. Also, the viability at 24 h, 100 µM in data set [1] is over 80%. The outcome in the data set with Mus musculus [2] was Active.

The molecule `O=C(O)CNC(=O)c1ncc(C2=CCN(S(=O)(=O)c3ccc(F)cc3)CC2)cc1O` came in with an IC50 against Egl nine homolog 1 of 43.5 nM. This counts as double-digit nanomolar.

Turning to `O=C(O)CNC(=O)c1ncc(C2=CCN(S(=O)(=O)c3ccc(Br)cc3)CC2)cc1O`, half-maximal inhibition on Egl nine homolog 1 (IC50) was put at 29.7 nM.

Turning to `O=C(O)CNC(=O)c1ncc(C2=CCN(S(=O)(=O)c3ccc4ccccc4c3)CC2)cc1O`, the IC50 at Egl nine homolog 1 was 97.4 nM.

The molecule `O=C(O)CNC(=O)c1ncc(C2=CCN(S(=O)(=O)c3ccccc3F)CC2)cc1O` gave an IC50 against Egl nine homolog 1 of 82.8 nM.

Molecule `O=C(O)CNC(=O)c1ncc(C2=CCN(C(=O)Nc3ccc(Cl)cc3)CC2)cc1O` returned an IC50 at Egl nine homolog 1 of 27 nM. Compared with the last molecule, the IC50 is about 3.1-fold lower.

`O=C(O)CNC(=O)c1ncc(C2=CCN(S(=O)(=O)c3cccnc3)CC2)cc1O` gave an IC50 against Egl nine homolog 1 of 51.2 nM.

Take `O=C(O)CNC(=O)c1ncc(C2=CCN(S(=O)(=O)c3cccc4ccccc34)CC2)cc1O`: half-maximal inhibition against Egl nine homolog 1 (IC50) was put at 22.4 nM.

The molecule `O=C(O)CNC(=O)c1ncc(C2=CCN(S(=O)(=O)c3cccs3)CC2)cc1O` displayed an IC50 against Egl nine homolog 1 of 46.5 nM.

With `O=C(O)CNC(=O)c1ncc(C2=CCN(S(=O)(=O)c3ccc(Cl)cc3)CC2)cc1O`, it took 27 nM to reach half-maximal inhibition against Egl nine homolog 1 (IC50).

Consider `Cc1ccc(S(=O)(=O)N2CC=C(c3cnc(C(=O)NCC(=O)O)c(O)c3)CC2)cc1`, for which the IC50 on Egl nine homolog 1 was determined as 45.3 nM.

Take `O=C(O)CNC(=O)c1ncc(C2=CCN(Cc3ccc(Cl)cc3)CC2)cc1O`: on Egl nine homolog 1, the IC50 came out at 73.9 nM.

As for `O=C(O)CNC(=O)c1ncc(C2=CCN(C(=O)c3ccc(Cl)cc3)CC2)cc1O`, on Egl nine homolog 1, the IC50 worked out at 25 nM.

Turning to `O=C(O)CNC(=O)c1ncc(C2=CCN(S(=O)(=O)Cc3ccccc3)CC2)cc1O`, half-maximal inhibition against Egl nine homolog 1 (IC50) required 18.2 nM.

At Egl nine homolog 1, `O=C(O)CNC(=O)c1ncc(C2=CCN(S(=O)(=O)c3cccc(F)c3)CC2)cc1O` returned an IC50 of 141 nM.

On to `O=C(O)CNC(=O)c1ncc(C2CCN(Cc3ccc(Cl)cc3)CC2)cc1O`, for which the IC50 on Egl nine homolog 1 was 588 nM.

As to `O=C(O)CNC(=O)c1ncc(C2=CCN(S(=O)(=O)Cc3ccc(C(F)(F)F)cc3)CC2)cc1O`, inhibition on Egl nine homolog 1 was half-maximal at 7.97 nM (IC50). Further, the viability at 24 h, 100 µM in data set [1] is over 80%. Further, the result in the data set on Mus musculus [2] was Active.

`N#Cc1ccc(S(=O)(=O)N2CC=C(c3cnc(C(=O)NCC(=O)O)c(O)c3)CC2)cc1`: half-maximal inhibition on Egl nine homolog 1 (IC50) required 20.7 nM.

Take `O=C(O)CNC(=O)c1ncc(C2=CCN(S(=O)(=O)Cc3ccc(OC(F)(F)F)cc3)CC2)cc1O`: the Activity entry in data set [3], in data set [4], in data set [5], in [6], in data set [7] and in [8] was “Non-Toxic” throughout. The Activity entry is “Non-Toxic” in [9]; “Non-Toxic” in data set [10]; “Non-Toxic” in [11]; “Non-Toxic” in data set [12]; “Dde” in the data set with Mus musculus [13]; “Non-Toxic” in data set [14]. In addition, the Activity result in data set [15], in data set [16], in data set [17], in data set [18], in data set [19] and in data set [20] was “Non-Toxic” throughout. The Activity entry in data set [21], in data set [22] and in data set [23] was “Non-Toxic” in each case. The molecule also yielded an IC50 against Egl nine homolog 1 of 6.55 nM. Further, the viability at 24 h, 100 µM in [1] was over 80%. Also, the outcome in the data set with Mus musculus [2] was Active.

At Egl nine homolog 1, `O=C(O)CNC(=O)c1ncc(C2=CCN(S(=O)(=O)c3ccccc3)CC2)cc1O` gave an IC50 of 132 nM.

As for `O=C(O)CNC(=O)c1ncc(C2=CCN(S(=O)(=O)Cc3ccc(F)cc3)CC2)cc1O`, the midpoint of inhibition against Egl nine homolog 1, the IC50, lay at 6.31 nM. The viability at 24 h, 100 µM in [1] was over 80%. For the same molecule, the outcome with Mus musculus [2] was Active.

The molecule `CC(C)(C)c1ccc(S(=O)(=O)N2CC=C(c3cnc(C(=O)NCC(=O)O)c(O)c3)CC2)cc1` returned an IC50 against Egl nine homolog 1 of 796 nM.

Take `O=C(O)CNC(=O)c1ncc(C2=CCN(S(=O)(=O)Cc3ccc(Br)cc3)CC2)cc1O`: the FC in the data set with Hep3B was found to be 2. For the same molecule, half-maximal inhibition against Egl nine homolog 1 (IC50) required 6.95 nM. Further, the viability at 24 h, 100 µM in data set [1] was over 80%. Also, in the data set with Mus musculus [2], the result was Active.

`O=C(O)CNC(=O)c1ncc(C2=CCN(S(=O)(=O)c3ccc(OC(F)(F)F)cc3)CC2)cc1O` yielded an IC50 against Egl nine homolog 1 of 50.9 nM.

These data come from ChEMBL document CHEMBL5137042, “Tetrahydropyridin-4-ylpicolinoylglycines as novel and orally active prolyl hydroxylase 2 (PHD2) inhibitors for the treatment of renal anemia” (Eur J Med Chem, 2022).
